# Measured values: US20190064177A1, “INCORPORATING COMPETITIVE BINDING INFORMATION INTO MOLECULAR ARRAY ANALYSIS TO GENERATE FUNCTION NETWORKS OF INTERACTIONS” (ARIZONA BOARD OF REGENTS ON BEHALF OF ARIZONA STATE …, priority 2017, published 2019)
# Tested on: diaphorase
# Experiment: fluorescently labeled diaphorase binding to peptide array with or without excess FAD
# Details: for 1 microM FAD (array fluorescence of bound diaphorase) / 1 micro no FAD (array fluorescence of bound diaphorase): 1 micromolar labeled diaphorase; for 1 microM FAD (array fluorescence of bound diaphorase) / 10 microM FAD (array fluorescence of bound diaphorase): excess FAD present; for 1 microM FAD (array fluorescence of bound diaphorase) / 1 micro no FAD (array fluorescence of bound diaphorase) / 10 microM FAD (array fluorescence of bound diaphorase) / 10 microM no FAD (array fluorescence of bound diaphorase): 65535 is detector saturation; for 10 microM FAD (array fluorescence of bound diaphorase) / 10 microM no FAD (array fluorescence of bound diaphorase): 10 micromolar labeled diaphorase; for 1 microM noFAD/FAD / 10 microM noFAD/FAD: ratio of binding without FAD to binding with FAD; for 1 microM noFAD/FAD / Meas. ratio: 1 micromolar diaphorase; for 10 microM noFAD/FAD: 10 micromolar diaphorase; for Meas. ratio: ratio without/with FAD calculated from measured binding values
# Method: Measurements were performed in which diaphorase was bound to an array of about 126,000 unique sequences. The sequences were chosen simply to cover sequence space. 16 of the natural 20 amino acids were used to make up these sequences with C, I, M and T omitted. The diaphorase was fluorescently labeled and each peptide sequence feature was scanned and fluorescence recorded on the array. Diaphorase bound tightly to some peptides and not at all to others. Two different concentrations of diaphorase were used, 1 and 10 micromolar, and the diaphorase was either bound in the presence of excess FAD or not. […] Indeed the Pearson correlation coefficient between w/ and w/o FAD was >0.97, which actually speaks to the reproducibility of this dataset. However, there are some differences as shown on the scatter plot of FIG. 1. When one takes a ratio of the binding without FAD and the binding with FAD, one finds the following top 30 ratios (Table 1): Note that all these sequences end with a GSG linker sequence. Because there are two concentrations, one can easily check for consistency. Note that 65535 is detector saturation, so one has to ignore those values. For this reason, the lower concentration is used most of the time. […] It appears that this was some kind of error and was ignored in subsequent analysis. A similar conclusion can be made with the 7th highest value. Looking at the sequences, RW or at least R or K followed by a nonpolar or aromatic amino acid at the N-terminus. This is interesting as FAD is negatively charged, though the adenine in FAD looks a bit like tryptophan (see FIG. 2).
1 microM FAD (array fluorescence of bound diaphorase),1 micro no FAD (array fluorescence of bound diaphorase),10 microM FAD (array fluorescence of bound diaphorase),10 microM no FAD (array fluorescence of bound diaphorase),1 microM noFAD/FAD,10 microM noFAD/FAD,Meas. ratio,Sequence
3483.25,9735.75,53014.5,65535,2.795,1.236,2.80,RYPWNKLYKFDGSG [array peptide with C-terminal GSG linker]
14421.5,5406,41059.5,53243,0.3749,1.297,0.37,RPLQVQRGGSG [array peptide with C-terminal GSG linker]
3860.75,10165,46173.5,61301.5,2.633,1.328,2.63,RWKYQKFNGGSG [array peptide with C-terminal GSG linker]
3614,10002.75,51221.25,65535,2.768,1.279,2.77,RWSFPAKGGSG [array peptide with C-terminal GSG linker]
–,–,–,–,–,–,0.70,SGVLQFFGGSG [array peptide with C-terminal GSG linker]
–,–,–,–,–,–,0.70,GYHLFEKLYFDGS
6638,4250.5,51495.5,26186.5,0.6403,0.5085,0.64,VFGVLSQVARDGSG [array peptide with C-terminal GSG linker]
–,–,–,–,–,–,0.70,WHLLGWVGYGGSG [array peptide with C-terminal GSG linker]
3436.25,2144.5,27800.25,6739,0.6241,0.2424,0.62,NVSDLSQFYLSGSG [array peptide with C-terminal GSG linker]
–,–,–,–,–,–,2.56,YQRHQNVFAKSGG
2049.75,607.25,2142.25,1853,0.2963,0.865,0.30,DLDKAFGGSG [array peptide with C-terminal GSG linker]
3658,10176.5,46265.5,64775,2.782,1.4,2.78,RWYKNGGSG [array peptide with C-terminal GSG linker]
–,–,–,–,–,–,1.49,YRGAGKNKGGSG [array peptide with C-terminal GSG linker]
5458,15697.5,65535,65535,2.876,1,2.88,RWQYYNQKFGSG [array peptide with C-terminal GSG linker]
2199.25,5764.75,30389,55899.25,2.621,1.839,2.62,RFKYPLDGGSG [array peptide with C-terminal GSG linker]
2470,1574.5,20187.75,12735.5,0.6374,0.6309,0.64,FQFGKVVSDGSG [array peptide with C-terminal GSG linker]

1 microM FAD (array fluorescence of bound diaphorase),1 micro no FAD (array fluorescence of bound diaphorase),10 microM FAD (array fluorescence of bound diaphorase),10 microM no FAD (array fluorescence of bound diaphorase),1 microM noFAD/FAD,10 microM noFAD/FAD,Meas. ratio,Sequence
2458,6907,36662,65535,2.81,1.788,2.81,PRYQNFGGGSG [array peptide with C-terminal GSG linker]
3049,1911.25,34155,15703,0.6268,0.4598,0.63,FGKLYQLYNDGSG [array peptide with C-terminal GSG linker]
2304.25,1467.5,21180.25,9478.25,0.6369,0.4475,0.64,VVQALFDGSG [array peptide with C-terminal GSG linker]
1727,1034,10408.25,6648,0.5987,0.6387,0.60,EGYANKLLALFSGSG [array peptide with C-terminal GSG linker]
–,–,–,–,–,–,2.43,WRVQAWRPNKVEG
4093.5,11043,51412.25,65535,2.698,1.275,2.70,RWRYYWKSEGSG [array peptide with C-terminal GSG linker]
2525.5,6842.5,40495.5,65535,2.709,1.618,2.71,PRSFGYNNVGGSG [array peptide with C-terminal GSG linker]
2705.5,1674.75,21822.25,9853.75,0.619,0.4515,0.62,VLSLNQVYSEGSG [array peptide with C-terminal GSG linker]
–,–,–,–,–,–,0.72,HVYGLNLFDGSG [array peptide with C-terminal GSG linker]
–,–,–,–,–,–,0.75,DYFEGQLNHLGGS
–,–,–,–,–,–,2.18,ARWQQYKFGGSG [array peptide with C-terminal GSG linker]
2103.25,5802.25,34712,63502.5,2.759,1.829,2.76,RFGQNLPLGGSG [array peptide with C-terminal GSG linker]
–,–,–,–,–,–,2.06,YRWGAKHYGGSG [array peptide with C-terminal GSG linker]
–,–,–,–,–,–,0.69,LFDNVLEFVEDGS
–,–,–,–,–,–,2.35,WRSVYVPNGGSG [array peptide with C-terminal GSG linker]
6762.5,18709.5,65535,65535,2.767,1,2.77,YRPYGPVYNGGSG [array peptide with C-terminal GSG linker]
